Measurements as given in patent US20160310584A1, “FORMULATIONS FOR NEOPLASIA VACCINES” (THE BROAD INSTITUTE INC., priority 2013, published 2016).
Read-outs that look alike come from different tables or passages of the source. Where a SMILES comes first, the peptide text is derived from it. Where no end group is shown, it is not given here.

Legend:
Assay type in all cases: physicochemical
[1] = Peptide solubility evaluation: dissolution in DMSO, dilution in D5W with or without succinate
Method: (§1) In a representative procedure, peptides were weighed and corrected for % peptide content, and then dissolved in DMSO to a concentration of 50 mg/mL. The DMSO/Peptide solution was then diluted with 5 mM sodium succinate in D5W to a 2 mg/mL peptide concentration.
Additional peptide solubility conditions were tested. Peptides CS6709, CS6712, CS6720, CS6726, and CS6783 were weighed at approximately 10 mg each. The peptides were then dissolved in approximately 200 μL USP grade DMSO to obtain a 50 mg/mL concentration for each peptide. […] Additional 50 μL increments of DMSO were added to Peptide CS6709 up to 400 μL; for a total of 600 μL of DMSO.
Based on gross weight and peptide content, 15 mg (net weight) or slightly more of each individual peptide are weighed and 100% USP Grade DMSO […] is added to achieve a final peptide concentration of 50 mg/ml.

pH of peptide solutions = experiment: pH of peptide solutions
Method: as §1

[2] = Dissolution of peptide in D5W without using DMSO; conditions: small amount of peptide (<1 mg)
[3] = Freeze/thaw and frozen storage stability (RP-HPLC, pH, visual inspection); conditions: −20° C. stability study
Method: Two individual peptides were dissolved in DMSO/D5W and placed on stability at two temperatures (−20° C. and −80° C.). These peptides were evaluated (RP-HPLC and pH and visual inspection) for up to 24 weeks. […] Any small changes appear to be due to assay variability as no trends were noted to be evaluated.
A peptide pool (Pool 4) consisting of five peptides was prepared by dissolution in DMSO, dilution with D5W/Succinate (5 mM) to 2 mg/ml and pooling to a final peptide concentration of 400 μg per ml and a final DMSO concentration of 4%. After preparation, peptides were filtered with a 25 mm Pall PES filter (Cat #4612) and dispensed into Nunc Cryo vials (#375418) in one ml aliquots. Samples were analyzed at time zero and at 2 and 4 weeks to date. Additional samples are analyzed at 8 and 24 weeks.

[4] = DMSO/D5W, Table 4, Y/N, diluted to 2 mg/ml, read-out: Solubility In DMSO/D5W
[5] = DMSO/D5W/succinate, Table 4, Y/N, read-out: Solubility in DMSO/D5W/Succinate
[6] = Table 4, Y/N, diluted to 2 mg/ml, read-out: Solubility In DMSO/D5W
[7] = Table 4, symbol X not defined, peptides dissolved at 50 mg/ml in 100% DMSO, read-out: Solubility in DMSO

Molecule | solubility [1, 4] | pH of peptides in DMSO/D5W/5 mM S. Succinate spike (pH of peptide solutions) | pH of peptides in DMSO/D5W/5 mM Succinate and Hiltonol (pH of peptide solutions) | also measured
H-AESAQRQGPLGGGEQSANEF-OH [CS7417] | – | 6.28 | 6.5 | solubility [1]: > 2000 µg/mL; solubility [1, 5]: > 2000 µg/mL
H-AESAQRQGPNGGGEQSANEF-OH [CS7416] | – | 6.31 | 6.54 | –
H-AHRQGEKQHLLPVFSRLALRLPWRHSVQL-OH [CS6941] | – | 6.49 | 6.78 | –
H-ALSLTPGLRIGPSGLFLVFLAESAVDKGHPNRS-OH [CS7410] | – | 6.46 | 6.88 | –
H-DSAVDKGHPNRSALSLTPGLRIGPSGLFLVFLA-OH [CS7411] | – | 6.53 | 6.94 | –
H-EDLHLLSVPCPSYKKLPLLIFPSHRRAPLLSA-OH [CS6918] | – | – | – | solubility [1, 6]: > 2000 µg/mL
H-EPDQEAVQSSTYKDCNTLHLPTERFSPVR-OH [CS6710] | > 2000 µg/mL | – | – | –
H-GTKALQLHSIAGRWPRMEPWVVESMSLGVP-OH [CS7415] | – | 6.61 | 6.81 | –
H-IGALNPKRAAFFAEHYESWE-OH [CS7420] | – | 6.38 | 6.56 | solubility [1]: > 2000 µg/mL
H-KKNITNLSRLVVRPDTDAVY-OH [CS7431] | – | 6.45 | 6.69 | –
H-KLAWRGRISSSGCPSMTSPPSPMFGMTLHT-OH [CS6919] | – | 6.74 | 6.99 | Heterodimer formation (mass spectrometry) [3]: can form a heterodimer
H-LKDSNSWPPSNKRGFDTEDAHKSNATPVP-OH [CS6712] | – | – | – | Dissolution directly in D5W without using DMSO [2]: could be dissolved
H-LLTDRNTSGTTFTLLGVSDYPELQVP-OH [CS7409] | – | 6.32 | 6.62 | solubility [1]: > 2000 µg/mL; solubility [1, 5]: > 2000 µg/mL
H-LLTDRNTSGTTFTLLGVSDYPELQVPIPQAGLG-OH [CS7408] | – | 6.31 | 6.75 | solubility [1]: > 2000 µg/mL; solubility [1, 5]: > 2000 µg/mL
H-LPVFIGNIAVNHAPVSLRPGLGLPPGAPPGTVP-OH [CS7438] | – | 6.78 | 6.96 | –
H-LRVFIGNIAVNHAPVSLRPGLGLPPGAPPGTVP-OH [CS7412] | – | 6.61 | 6.96 | solubility [1]: > 2000 µg/mL
H-LTDLPGRIRVAPQQNDLDSPQQISISNAE-OH [CS6709] | – | – | – | Dissolution directly in D5W without using DMSO [2]: could be dissolved; solubility [1, 7]: < 50000 µg/mL
H-PLMQTELHQLVPEADPEEMA-OH [CS7430] | – | 6.23 | 6.37 | –
H-PPYPYSSPSLVLPTEPHTPKSLQQPGLPS-OH [CS6715] | > 2000 µg/mL | – | – | –
H-RGLHSQGLGRGRIAMAQTAGVLRSLEQEE-OH [CS6711] | > 2000 µg/mL | – | – | –
H-SGQPAPEETVLFLGLLHGLLLILRRLRGG-OH [CS6937] | – | 6.51 | 6.76 | solubility [1]: > 2000 µg/mL
H-SHVEKAHITAESAQRQGPNGGGEQSANEF-OH [CS6708] | > 2000 µg/mL | – | – | –
H-SKRGVGAKTLLLPDPFLFWPCLEGTRRSL-OH [CS6934] | – | 6.57 | 6.79 | Heterodimer formation (mass spectrometry) [3]: can form a heterodimer
H-SYKKLPLLIFPSHRRAPLLSATGDRGFSV-OH [CS6936] | – | – | – | solubility [1, 6]: > 2000 µg/mL
H-VAGLAASGLHGSAWLVPGEQPVSGPHHGKQ-OH [CS6931] | – | 6.42 | 6.66 | –
H-VEQGHVRVGPDVVTHPAFLV-OH [CS7427] | – | 6.34 | 6.52 | –
H-VQLSIQDVIRRARLSTVPTAQRVALRSGWI-OH [CS7413] | – | 6.73 | 7.02 | –
H-WDGPPENDMLLKEICGSLIP-OH [CS7432] | – | 6.22 | 6.45 | –
H-YLLPKTAVVLRCPALRVRKP-OH [CS7418] | – | 6.76 | 6.96 | –
KGASLDAGWGSPRWTTTRMTSASAGRSTRA [CS7414] | – | 6.71 | 6.99 | Solubility in DMSO/D5W/Succinate [1]: Y

The next lines start with results.

solubility [1, 4] | Molecule | pH of peptides in DMSO/D5W/5 mM S. Succinate spike (pH of peptide solutions) | pH of peptides in DMSO/D5W/5 mM Succinate and Hiltonol (pH of peptide solutions) | also measured
> 2000 µg/mL | CC[C@H](C)[C@H](NC(=O)[C@H](CS)NC(=O)[C@H](CC(C)C)NC(=O)[C@@H](N)CC(=O)O)C(=O)N[C@@H](CS)C(=O)N1CCC[C@H]1C(=O)N[C@@H](CCCNC(=N)N)C(=O)N[C@@H](CO)C(=O)N[C@@H](Cc1c[nH]cn1)C(=O)N[C@@H](CCCNC(=N)N)C(=O)NCC(=O)N[C@@H](C)C(=O)N[C@@H](Cc1ccccc1)C(=O)N[C@@H](CCC(N)=O)C(=O)N[C@@H](CC(C)C)C(=O)N[C@@H](CC(C)C)C(=O)N1CCC[C@H]1C(=O)N[C@@H](CO)C(=O)N[C@@H](C)C(=O)N[C@@H](CC(C)C)C(=O)N[C@@H](CC(C)C)C(=O)N[C@H](C(=O)N[C@@H](CCCNC(=N)N)C(=O)N[C@H](C(=O)N[C@@H](CC(C)C)C(=O)N[C@@H](CCC(=O)O)C(=O)NCC(=O)N[C@@H](CO)C(=O)N[C@@H](CC(=O)O)C(=O)N[C@@H](CO)C(=O)O)C(C)C)C(C)C [CS6932] (H-DLCICPRSHRGAFQLLPSALLVRVLEGSDS-OH) | – | – | –
> 2000 µg/mL | H-APALGPGAASVASRCGLDPALAPGGSHMLRA-OH [CS6927] | – | – | –
< 2000 µg/mL | H-DASDFLPDTQLFPHFTELLLPLDPLEGSSV-OH [CS6935] | – | – | –
> 2000 µg/mL | H-DMAWRRNSRLYWLIKMVEQWQEQHLPSLSS-OH [CS6943] | – | – | –
> 2000 µg/mL | H-DSAVDKGHPNRSALSLTPGLRIGPSGIPQAGLG-OH [CS6726] | – | – | Dissolution directly in D5W without using DMSO [2]: could be dissolved
> 2000 µg/mL | H-EEGLLPEVFGAGVPLALCPAVPSAAKPHRPRVL-OH [CS6933] | – | – | –
> 2000 µg/mL | H-FRLIWRSVKNGKSSREQELSWNCSHQVPSLGA-OH [CS6917] | – | – | –
> 2000 µg/mL | H-GASRRSSASQGAGSLGLSEEKTLRSGGGP-OH [CS6781] | – | – | –
> 2000 µg/mL | H-GKSRGQQAQDRARHAAGAAPARPLGALREQ-OH [CS6938] | – | – | –
> 2000 µg/mL | H-GLLSDGSGLGQITWASAEHLQRPGAGAELA-OH [CS6914] | – | – | –
> 2000 µg/mL | H-GTYLQGTASALSQSQERPPSVNRVPPSSPSSQE-OH [CS6725] | – | – | –
> 2000 µg/mL | H-KKEKAEKLEKERQRHISKPLLGGPFSLTTHTGE-OH [CS6718] | – | – | –
> 2000 µg/mL | H-KPKKVAGAATPKKSIKRTPKKVKKPATAAGTKK-OH [CS6717] | – | – | –
> 2000 µg/mL | H-LAASGLHGSAWLVPGEQPVSGPHHGKQPAGV-OH [CS6930] | – | – | –
> 2000 µg/mL | H-LPVFIGNIAVNHAPVSLRPGLGLPPGAPPLVVP-OH [CS6730] | – | – | –
< 2000 µg/mL | H-LSVPFTCGVNFGDSIEDLEI-OH [CS7428] | – | – | –
> 2000 µg/mL | H-PIERVKKNLLKKEYNVSDDSMKLGGNNTSEKAD-OH [CS6721] | – | – | –
> 2000 µg/mL | H-PIQVFYTKQPQNDYLHVALVSVFQIHQEAPSSQ-OH [CS6729] | – | – | –
> 2000 µg/mL | H-PQLAGGGGSGAPGEHPLLPGGAPLPAGLF-OH [CS6716] | – | – | –
> 2000 µg/mL | H-SKLPYPVAKSGKRALARGPAPTEKTPHSGAQLG-OH [CS6719] | – | – | –
> 2000 µg/mL | H-SPTEPSTKLPGFDSCGNTEIAERKIKRIYGGFK-OH [CS6720] | – | – | Dissolution directly in D5W without using DMSO [2]: could be dissolved
> 2000 µg/mL | H-SYDSVIRELLQKPNVRVVVL-OH [CS7425] | 6.44 | 6.65 | solubility [1, 5]: < 2000 µg/mL; solubility [1, 7]: < 50000 µg/mL
< 2000 µg/mL | H-VSWGKKVQPIDSILADWNEDIEAFEMMEKD-OH [CS6942] | – | – | –
